From patent US5284853A, “Angiotensin II receptor blocking 2,3,6 substituted quinazolinones” (American Cyanamid Company, priority 1993, dated 1994)
Where “and” joins values, the source holds several entries; their conditions need not be identical. Equal entries are not always repeated. Each block holds one molecule with its values, some of them ahead of it.

Legend:
[1] = system: Angiotensin II (AII) vasopressor response; assay: AII Challenge: antagonism of the angiotensin II vasopressor response in conscious SHR; format: in vivo, Spontaneously hypertensive rats (Male okamoto-Aoki SHR); details: for Average Change / Inhibition: n = 2; for Change / Control Before AII / Response After AII: per rat
Source text: […] Conscious Male okamoto-Aoki SHR, 16-20 weeks old, weighing approximately 330 g are purchased from Charles River Labs (Wilmington, MA). Conscious rats are restrained in a supine position with elastic tape. The area at the base of the tail is locally anesthetized by subcutaneous infiltration with 2% procaine. […] The cannula is secured, heparinized (1,000 I.U./ml), sealed and the wound is closed. The animals are placed in plastic restraining cages in an upright position. The cannula is attached to a Statham P23Db pressure transducer, and pulsatile blood pressure is recorded to 10-15 minutes with a Gould Brush recorder. (Chan et al., (Drug Development Res., 18:75-94, 1989). […] Co., St. […] […] […] […] […] A compound is considered active if at 30 mg/kg i.v. it antagonized at least 50% of the response.

[2] = target: T1, Angiotensin II Receptor (Bos taurus, UniProt P25104); assay: Receptor binding assay: competition of [^125 I](Sar^1,Ile^8)AngII binding to beef adrenal cortex microsomal membranes; details: 60 min, room temperature, pH 7.4
T1 construct: The brownish tissue forming the adrenal cortex is scraped off and finely minced with scissors before homogenization; tissue local slaughter house (Maxwell-Cohen); host or cells: beef adrenal cortex, microsomal membranes (100,000×g pellet)
T1 sequence (P25104 1-359): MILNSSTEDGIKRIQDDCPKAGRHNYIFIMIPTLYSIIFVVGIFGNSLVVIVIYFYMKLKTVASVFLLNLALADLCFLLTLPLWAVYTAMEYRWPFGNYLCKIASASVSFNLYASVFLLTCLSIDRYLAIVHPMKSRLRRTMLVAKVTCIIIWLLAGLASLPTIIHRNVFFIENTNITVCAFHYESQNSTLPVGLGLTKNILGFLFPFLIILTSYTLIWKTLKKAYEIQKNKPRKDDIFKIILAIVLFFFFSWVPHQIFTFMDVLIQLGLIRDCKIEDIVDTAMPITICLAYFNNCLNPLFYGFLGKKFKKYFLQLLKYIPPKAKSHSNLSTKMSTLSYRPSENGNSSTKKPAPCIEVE
Source text: Beef adrenals are obtained from a local slaughter house (Maxwell-Cohen). [^125 […]. 2200 Ci/mmole, is purchased from Dupont (KEN@, Boston, Mass.). All unlabeled AngII analogs, Dimethylsulfoxide (DMSO), nucleotides, bovine serum albumin (BBA) are purchased from Sigma Chemical Co., St. Louis, MO U.S.A. Approximately sixteen (16) to twenty (20) beef adrenal glands are processed as follows: fresh adrenal glands received on crushed ice are cleaned of fatty tissues and the tough membranes encapsulating the glands are removed and discarded. The brownish tissue forming the adrenal cortex is scraped off and finely minced with scissors before homogenization care is taken to avoid contamination with medullary tissue during dissection. […] Unless otherwise indicated, all subsequent operations are done at […]. […] The homogenate is centrifuged first at low speed (3,000×g) for 10 min. […] This P2 pellet is discarded and the liquid phase is carefully decanted off in clean centrifuge tubes and recentrifuged at high speed (100,000×g) for 60 min. The translucent final pellet is harvested and combined in a small volume (20-50.0 ml) of […] Tris.HCl buffer, pH 7.2. A 100 ul aliquot is withdrawn and the protein content of the preparation is determined by the Lowry's method (Lowry, O. H., Rosebrough, N. P., Parr, A. L. and Randall, R. J., Protein measurement with Folin phenol reagent. J. Biol. Chem., […], 265-275, 1951). The pelleted membrane is reconstituted in 50.0 mM Tris.HCl buffer containing 0.1 mM of phenylmethylsulfonyl fluoride (PMSF) to give approximately a protein concentration of 2.5 mg per ml of tissue suspension. […] In competition studies, experimental compounds are diluted in dimethylsulfoxide (DMSO) and added in 20 ul to wells before the introduction of tissue membranes. This concentration of DMSO is found to have no negative effects on the binding of [^125 I] ([…] to the membranes. Assays are performed in triplicate. The wells are left undisturbed for 60 min. at room temperature. Following incubation, all wells are harvested at once with a Brandel® Harvester especially designed for a 96 well plate (Brandel® Biomedical Research & Development Labs. Inc., Gaithersburg, MD, U.S.A.). The filter discs are washed with 10×1.0 ml of cold 0.9% NaCl to remove unbound ligand. Presoaking the filter sheet in 0.1% polyethyleneimine in normal saline (PEI/Saline) greatly reduces the radioactivity retained by the filter blanks. This method is routinely used. The filters are removed from the filter grid and counted in a Parkard® Cobra Gamma Counter for 1 min. (Packard Instrument Co., Downers Grove, Ill, U.S.A.). The binding data are analyzed by the non-linear interactive "LUNDON-11" program (LUNDON SOFTWARE Inc., Cleveland, OH U.S.A.).

[3] = 5 mg/kg I.V., AII 0.05 mcg/kg IV, 30 min post dose
[4] = 5 mg/kg I.V., AII 0.05 mcg/kg IV, 60 min post dose
[5] = 5 mg/kg I.V., AII 0.05 mcg/kg IV, 90 min post dose
[6] = 5 mg/kg I.V., AII 0.05 mcg/kg IV, 180 min post dose
[7] = 5 mg/kg I.V., AII 0.1 mcg/kg IV, 30 min post dose
[8] = 5 mg/kg I.V., AII 0.1 mcg/kg IV, 60 min post dose
[9] = 5 mg/kg I.V., AII 0.1 mcg/kg IV, 90 min post dose
[10] = 5 mg/kg I.V., AII 0.1 mcg/kg IV, 120 min post dose
[11] = 5 mg/kg I.V., AII 0.1 mcg/kg IV, 180 min post dose
[12] = 5 mg/kg I.V., AII 0.5 mcg/kg IV, 120 min post dose
[13] = 15 mg/kg I.V., AII 0.05 mcg/kg IV, 30 min post dose
[14] = 15 mg/kg I.V., AII 0.05 mcg/kg IV, 60 min post dose
[15] = 15 mg/kg I.V., AII 0.05 mcg/kg IV, 90 min post dose
[16] = 15 mg/kg I.V., AII 0.05 mcg/kg IV, 120 min post dose
[17] = 15 mg/kg I.V., AII 0.05 mcg/kg IV, 180 min post dose
[18] = 15 mg/kg I.V., AII 0.1 mcg/kg IV, 30 min post dose
[19] = 15 mg/kg I.V., AII 0.1 mcg/kg IV, 60 min post dose
[20] = 15 mg/kg I.V., AII 0.1 mcg/kg IV, 90 min post dose
[21] = 15 mg/kg I.V., AII 0.1 mcg/kg IV, 120 min post dose
[22] = 15 mg/kg I.V., AII 0.1 mcg/kg IV, 180 min post dose

IC50 [2]: 330 nM
SMILES: CCCCc1nc2ccc(C3CC(c4ccc(C)s4)=NO3)cc2c(=O)n1Cc1ccc(-c2ccccc2-c2nnn[nH]2)cc1 (stereo not drawn) [Example 21]
Average Change [1, 3]: 13.5 mmhg
Inhibition [1, 3]: 72%
Change [1, 3]: 17 mmhg and 10 mmhg
Control Before AII [1, 3]: 188 mmhg and 180 mmhg
Response After AII [1, 3]: 205 mmhg and 190 mmhg
Average Change [1, 4]: 25 mmhg
Inhibition [1, 4]: 47%
Change [1, 4]: 35 mmhg and 15 mmhg
Control Before AII [1, 4]: 175 mmhg
Response After AII [1, 4]: 210 mmhg and 190 mmhg
Average Change [1, 5]: 24 mmhg
Inhibition [1, 5]: 49%
Change [1, 5]: 25 mmhg and 23 mmhg
Control Before AII [1, 5]: 170 mmhg and 157 mmhg
Response After AII [1, 5]: 195 mmhg and 180 mmhg
Average Change [1, 6]: 30 mmhg
Inhibition [1, 6]: 37%
Change [1, 6]: 40 mmhg and 20 mmhg
Control Before AII [1, 6]: 170 mmhg and 160 mmhg
Response After AII [1, 6]: 210 mmhg and 180 mmhg
Average Change [1, 7]: 27.5 mmhg
Inhibition [1, 7]: 41%
Change [1, 7]: 30 mmhg and 25 mmhg
Control Before AII [1, 7]: 180 mmhg and 175 mmhg
Response After AII [1, 7]: 210 mmhg and 200 mmhg
Average Change [1, 8]: 34 mmhg
Inhibition [1, 8]: 28%
Change [1, 8]: 38 mmhg and 30 mmhg
Control Before AII [1, 8]: 175 mmhg and 165 mmhg
Response After AII [1, 8]: 213 mmhg and 195 mmhg
Average Change [1, 9]: 31 mmhg
Inhibition [1, 9]: 34%
Change [1, 9]: 40 mmhg and 22 mmhg
Control Before AII [1, 9]: 175 mmhg and 163 mmhg
Response After AII [1, 9]: 215 mmhg and 185 mmhg
Average Change [1, 10]: 31.5 mmhg
Inhibition [1, 10]: 33%
Change [1, 10]: 40 mmhg and 23 mmhg
Control Before AII [1, 10]: 175 mmhg and 160 mmhg
Response After AII [1, 10]: 215 mmhg and 183 mmhg
Average Change [1, 11]: 40 mmhg
Inhibition [1, 11]: 15%
Change [1, 11]: 50 mmhg and 30 mmhg
Control Before AII [1, 11]: 175 mmhg and 160 mmhg
Response After AII [1, 11]: 225 mmhg and 190 mmhg
Average Change [1, 12]: 27.5 mmhg
Inhibition [1, 12]: 42%
Change [1, 12]: 35 mmhg and 20 mmhg
Control Before AII [1, 12]: 185 mmhg and 160 mmhg
Response After AII [1, 12]: 220 mmhg and 180 mmhg

IC50 [2]: 200 nM
SMILES: CCCCc1nc2ccc(C3(C)CC(C(=O)OCC)=NO3)cc2c(=O)n1Cc1ccc(-c2ccccc2-c2nnn[nH]2)cc1 (stereo not drawn) [Example 30]
Average Change [1, 13]: 10 mmhg
Inhibition [1, 13]: 78%
Change [1, 13]: 15 mmhg and 5 mmhg
Control Before AII [1, 13]: 175 mmhg and 215 mmhg
Response After AII [1, 13]: 190 mmhg and 220 mmhg
Average Change [1, 14]: 9 mmhg
Inhibition [1, 14]: 80%
Change [1, 14]: 0 mmhg and 18 mmhg
Control Before AII [1, 14]: 190 mmhg and 207 mmhg
Response After AII [1, 14]: 190 mmhg and 225 mmhg
Average Change [1, 15]: 20 mmhg
Inhibition [1, 15]: 57%
Change [1, 15]: 20 mmhg
Control Before AII [1, 15]: 170 mmhg and 210 mmhg
Response After AII [1, 15]: 190 mmhg and 230 mmhg
Average Change [1, 16]: 35 mmhg
Inhibition [1, 16]: 24%
Change [1, 16]: 40 mmhg and 30 mmhg
Control Before AII [1, 16]: 165 mmhg and 200 mmhg
Response After AII [1, 16]: 205 mmhg and 230 mmhg
Average Change [1, 17]: 5 mmhg
Inhibition [1, 17]: 89%
Change [1, 17]: 5 mmhg
Control Before AII [1, 17]: 200 mmhg and 240 mmhg
Response After AII [1, 17]: 205 mmhg and 245 mmhg
Average Change [1, 18]: 17 mmhg
Inhibition [1, 18]: 58%
Change [1, 18]: 14 mmhg and 20 mmhg
Control Before AII [1, 18]: 170 mmhg and 210 mmhg
Response After AII [1, 18]: 184 mmhg and 230 mmhg
Average Change [1, 19]: 20 mmhg
Inhibition [1, 19]: 50%
Change [1, 19]: 15 mmhg and 25 mmhg
Control Before AII [1, 19]: 185 mmhg and 200 mmhg
Response After AII [1, 19]: 200 mmhg and 225 mmhg
Average Change [1, 20]: 32.5 mmhg
Inhibition [1, 20]: 19%
Change [1, 20]: 35 mmhg and 30 mmhg
Control Before AII [1, 20]: 165 mmhg and 205 mmhg
Response After AII [1, 20]: 200 mmhg and 235 mmhg
Average Change [1, 21]: 29 mmhg
Inhibition [1, 21]: 28%
Change [1, 21]: 25 mmhg and 33 mmhg
Control Before AII [1, 21]: 175 mmhg and 200 mmhg
Response After AII [1, 21]: 200 mmhg and 233 mmhg
Average Change [1, 22]: 15 mmhg
Inhibition [1, 22]: 63%
Change [1, 22]: 25 mmhg and 5 mmhg
Control Before AII [1, 22]: 190 mmhg and 240 mmhg
Response After AII [1, 22]: 215 mmhg and 245 mmhg
